Measurements from patent US9326973B2, “Hepatitis C virus inhibitors” (priority 2012, dated 2016).

Tested on: HCV replicon, genotype-1a variant with glutamine 30 changed to glutamate in the NS5A protein
Assay: microbe, parasite or virus in culture
Assay type: cell-based, HCV genotype 1a
Settings: HCV replicon genotype 1a Q30E (Q→E) variant; test compound titrated with an NS5A-targeting compound (BMS-790052 fixed at 200 nM); ranking of synergist activity
Source text: The NS5A synergistic inhibitory effect of test compounds can be determined using various amounts of an NS5A-targeting compound with titration of a second compound of interest. […] In one embodiment, the HCV genotype strain can be genotype 1a containing a change at amino acid 30 of the NS5A protein consisting of glutamine to glutamate. The test compound can be chosen from compounds listed above or from others present in the literature.

Structure (SMILES)	Fold-Synergistic 1a (Q30E) [fold]
COC(=O)N[C@@H](C(=O)N[C@H](c1nc(-c2ccc(-c3ccc(-c4c[nH]c([C@@H](NC(=O)[C@H](NC(=O)OC)C(C)C)C5CCCC5)n4)cc3)cc2)c[nH]1)C1CCCC1)C(C)C [Compound N-43]	>10
CC(C)(C)OC(=O)N[C@]1(C(=O)N[C@H](c2nc(-c3ccc(-c4ccc(-c5c[nH]c([C@@H](NC(=O)[C@@]6(NC(=O)OC(C)(C)C)C[C@H]6CC(F)F)C(C)(C)C)n5)cc4)cc3)c[nH]2)C(C)(C)C)C[C@H]1CC(F)F [Compound W-1]	>100
C[C@@H]1CCCCN1C(=O)C(C)(C)C(=O)N[C@H](c1nc(-c2ccc(-c3ccc(-c4c[nH]c([C@@H](NC(=O)C(C)(C)C(=O)N5CCCC[C@H]5C)C(C)(C)C)n4)cc3)cc2)c[nH]1)C(C)(C)C [Compound W-148]	>100
CC(C)(C)[C@H](NC(=O)[C@H]1[C@@H]2COC[C@@H]21)c1nc(-c2ccc(-c3ccc(-c4c[nH]c([C@@H](NC(=O)[C@H]5[C@@H]6COC[C@@H]65)C(C)(C)C)n4)cc3)cc2)c[nH]1 [Compound L-67]	>100
CC(C)(C)[C@H](NC(=O)[C@H]1CCC(=O)O1)c1nc(-c2ccc(-c3ccc(-c4c[nH]c([C@@H](NC(=O)[C@H]5CCC(=O)O5)C(C)(C)C)n4)cc3)cc2)c[nH]1 [Compound L-79]	<10
CCC(C)CC(=O)N1CCC[C@H]1c1ncc(-c2ccc(-c3ccc(-c4cnc([C@@H]5CCCN5C(=O)CC(C)CC)[nH]4)cc3)cc2)[nH]1 (stereo partly shown) [Compound S-172]	>10
Cc1cc(-c2ccc(-c3c[nH]c([C@@H](NC(=O)C4(C)CCCC4)C(C)C)n3)cc2)ccc1-c1c[nH]c([C@@H](NC(=O)C2(C)CCCC2)C(C)C)n1 [Compound N-80]	>100
CC(C)(CO)C(=O)N[C@H](c1nc(-c2ccc(-c3ccc(-c4c[nH]c([C@@H](NC(=O)C(C)(C)CO)C(C)(C)C)n4)cc3)cc2)c[nH]1)C(C)(C)C [Compound L-56]	>100
CC(C)(C)[C@H](NC(=O)C1(F)CCCCC1)c1nc(-c2ccc(-c3ccc(-c4c[nH]c([C@@H](NC(=O)C5(F)CCCCC5)C(C)(C)C)n4)cc3)cc2)c[nH]1 [Compound S-286]	>100
C=C1C[C@@H](C(=O)N[C@H](c2nc(-c3ccc(-c4ccc(-c5c[nH]c([C@@H](NC(=O)[C@@H]6CC(=C)CN6C(=O)OC(C)(C)C)C(C)(C)C)n5)cc4)cc3)c[nH]2)C(C)(C)C)N(C(=O)OC(C)(C)C)C1 [Compound W-91]	>100
CC(C)(C)OC(=O)N[C@]1(C(=O)N[C@H](c2nc(-c3ccc(-c4ccc(-c5c[nH]c([C@@H](NC(=O)[C@@]6(NC(=O)OC(C)(C)C)C[C@H]6C6CC6)C(C)(C)C)n5)cc4)cc3)c[nH]2)C(C)(C)C)C[C@H]1C1CC1 [Compound W-3]	>100
CC(C)[C@H](NC(=O)C1CC(F)(F)C1)c1nc(-c2ccc3c(c2)Cc2cc(-c4c[nH]c([C@@H](NC(=O)C5CC(F)(F)C5)C(C)C)n4)ccc2-3)c[nH]1 [Compound N-71]	>100
O=C(c1cnccc1C(F)(F)F)N1CCC[C@H]1c1ncc(-c2ccc(-c3ccc(-c4cnc([C@@H]5CCCN5C(=O)c5cnccc5C(F)(F)F)[nH]4)cc3)cc2)[nH]1 [Compound S-134]	<10
O=C(Cc1ccccn1)N1CCC[C@H]1c1ncc(-c2ccc(-c3ccc(-c4cnc([C@@H]5CCCN5C(=O)Cc5ccccn5)[nH]4)cc3)cc2)[nH]1 [Compound S-149]	<10
C=CCC(F)(F)C(=O)N[C@H](c1nc(-c2ccc(-c3ccc(-c4c[nH]c([C@@H](NC(=O)C(F)(F)CC=C)C(C)(C)C)n4)cc3)cc2)c[nH]1)C(C)(C)C [Compound S-287]	>100
CC(C)CC(=O)N[C@@H](c1ccccc1)c1nc(-c2ccc(-c3ccc(-c4c[nH]c([C@@H](NC(=O)CC(C)C)c5ccccc5)n4)cc3)cc2)c[nH]1 [Compound P-5]	>100
